Data on two molecules can be found in article PMC3585840 (Drugs in R&D, 2012).

Each structure is given as a SMILES string. Read-outs that look alike come from different tables or passages of the source. A value given as a limit tells only on which side of the number the result lay.

One data set deals with DβH. Particulars: cited from earlier work.
For data set [1] the following is noted: cited from earlier work.
The subject of data set [2] is spontaneously hypertensive rats (SHR). Particulars: cited from earlier work.
Data set [3] is described as follows: Plasma pharmacokinetics, rising multiple-dose study. It is filed as in vivo, human.
The format of data set [4] is in vivo, human.
The next data set in a line: Safety and tolerability. It is filed as in vivo, human.
The nature of data set [5]: Supine blood pressure and ECG-measured heart rate. The settings on record: for decrease of supine DBP Emax in relation to day 1 / decrease of supine DBP AUCEC in relation to day 1: repeated dosing. It is filed as in vivo, human.
Data set [6] has as its system urinary levels of norepinephrine, dopamine, epinephrine and homovanillic acid. In words: Urinary catecholamine excretion. It is filed as in vivo, human. The settings on record: for decrease of urinary excretion of norepinephrine at day 10 in relation to day 1: 24-hour urine.
The conditions of data set [7]: healthy subjects; cited from earlier work.
The mark [8] stands for this setting: etamicastat 25–600 mg once daily for 10 days.

`NCc1c[nH]c(=S)n1[C@H]1CCc2c(F)cc(F)cc2C1` [Nepicastat]: the “potency as DβH inhibitor versus first- and second-generation inhibitors” value with DβH is given as “much greater potency”.

A word on the half-life: it is the time needed for the level to fall by half in the phase considered. Take `Cl.NCCc1c[nH]c(=S)n1[C@H]1COc2c(F)cc(F)cc2C1` [Etamicastat, (R)-5-(2-aminoethyl)-1-(6,8-difluorochroman-3-yl)-1,3-dihydroimidazole-2-thione hydrochloride]: the “time of maximum plasma concentrations (Cmax) after dosing” value in data set [1] (single dose 2–1200 mg) is 1 to 3 h. The tolerability result in data set [1] (single doses 2–1200 mg) was “well tolerated at all the investigated dose levels”; in the data set “Safety and tolerability” (etamicastat up to 600 mg once daily for 10 days), “generally well tolerated”. In addition, the “longer elimination half-life (t1/2)” value in [1] (single etamicastat doses ≥100 mg) is 16 to 20 h. The “blood pressure and norepinephrine urinary excretion” value in data set [2] (chronically administered in drinking water, SHR rats) was “significantly reduced”. In addition, the “urinary excretion of dopamine” value in data set [2] (chronically administered in drinking water, only in SHR rats) was “increased significantly”. In addition, the “systolic and diastolic blood pressure (but not the heart rate)” value in data set [2] (oral administration, SHR rats, dose-dependent, not observed in normotensive control rats) is on record as “decreased”. Further, in data set [3] (all dose groups 25–600 mg once daily), the “days of dosing until steady-state plasma concentrations were attained” value is “up to 9 days”. In addition, in data set [3] (dose range 25–600 mg), the linearity of pharmacokinetics result was “linear pharmacokinetics”. The “day at which steady state was reached (trough plasma concentrations)” value was 9 days in data set [3] (etamicastat 200 mg once daily), 8 days in [3] (etamicastat 400 mg once daily) and under 6 days in data set [3] (remaining dose groups). Further, in data set [3] (etamicastat 25–600 mg), the “effect of NAT1 phenotype on etamicastat pharmacokinetics” value is listed as “No relevant effect”. Moreover, in data set [3] (male, human, plasma, oral, mean apparent t1/2 following the first dose, range over etamicastat 25–600 mg, plasma), the half-life is 540 to 900 min. Moreover, the “mean observed accumulation ratio (RO)” value in data set [3] (range over etamicastat 25–600 mg once daily for 10 days) was 1.3–1.9. In addition, in data set [3] (range over etamicastat 25–600 mg once daily, plasma), the “time after dosing at which maximum concentration (Cmax) was reached” value lay in the range of 1 to 3 h. Besides, the urinary excretion rate in data set [4] (first dose, etamicastat 25 mg) stood at 0.3 ± 0.1 mg/h; in [4] (first dose, etamicastat 600 mg) it was 8.5 ± 3.2 mg/h; in data set [4] (last dose, etamicastat 25 mg), 0.4 ± 0.2 mg/h; in data set [4] (last dose, etamicastat 600 mg), 10.6 ± 2.8 mg/h. In data set [4] (male, human, urine and plasma, po), this molecule displayed a CL renal of 198 to 267 mL/min. Also, the “subjects reporting diarrhea as an AE” value in “Safety and tolerability” (600 mg etamicastat group) came out at 83%. Moreover, the clinical laboratory evaluations entry in “Safety and tolerability” (setting [8]) is reported as “no clinically significant abnormality”. Besides, the “intensity of adverse events” value in the data set “Safety and tolerability” (setting [8]) is “mild to moderate”. Further, the serious adverse events entry in the data set “Safety and tolerability” (setting [8]) is “no serious AEs”. The “decrease of supine DBP Emax in relation to day 1” value in data set [5] (etamicastat 100 mg, p < 0.01) stood at 5.6 mmHg; in data set [5] (etamicastat 200 mg, p < 0.05), 5.9 mmHg. In addition, the “decrease of supine DBP AUCEC in relation to day 1” value in data set [5] (etamicastat 100 mg, p < 0.05) is recorded as 223 mmHg · h; in [5] (etamicastat 200 mg, p < 0.05), 193 mmHg · h. The “change in SBP and HR” value in data set [5] (following repeated dosing, any dose level) is on record as “did not significantly change”. The “changes in SBP, DBP or HR” value in data set [5] (following the first dose, etamicastat 25–600 mg) is given as “no significant changes”. The “change in urinary excretion of homovanillic acid, epinephrine and dopamine” value in data set [6] (day 1 to day 10, all dose groups) is recorded as “No relevant changes”. Besides, the “decrease in norepinephrine urinary excretion” value in [6] (doses of etamicastat 100 mg and above, day 10 vs day 1) is given as 32–36%. Also, the “decrease of urinary excretion of norepinephrine at day 10 in relation to day 1” value in [6] (etamicastat 25 mg once daily) is 24%; in data set [6] (etamicastat 50 mg once daily), 18%; in data set [6] (etamicastat 100 mg once daily), 36%; in data set [6] (etamicastat 200 mg once daily), 34%; in data set [6] (etamicastat 400 mg once daily), 32%; in data set [6] (etamicastat 600 mg once daily) it was 34%. The “effect of food on absorption” value in [7] is “delayed by the presence of food”. Further, the “effect of food on extent of systemic exposure (AUC)” value in data set [7] was “no significant effect”.
